Activity calls are given as the source filed them. The calls are words filed in the database; no cut-off is given here.
Columns and labels:
[1] = tested on: PC-3; assay: Cytotoxicity against human PC3 cells assessed as reduction in cell viability measured after 72 hrs by MTT assay; assay type: functional, cell-based; conditions: PC-3, 72 h
[2] = tested on: B16-F10; assay: Cytotoxicity against mouse B16-F10 cells assessed as reduction in cell viability measured after 72 hrs by MTT assay; assay type: functional, cell-based; conditions: B16-F10, 72 h
[3] = tested on: CHO-K1; assay: Cytotoxicity against […] cells assessed as reduction in cell viability measured after 72 hrs by MTT assay; assay type: cell-based; conditions: Cricetulus griseus, CHO-K1, 72 h
[4] = target: Quadruplex DNA; assay: Binding affinity to c-Myc G-quadruplex DNA (unknown origin) assessed as dissociation constant incubated for 5 mins by UV- vis spectrophotometric analysis; assay type: nucleic-acid assay
[5] = target: Quadruplex DNA; assay: Binding affinity to Tel Q G-quadruplex DNA (unknown origin) assessed as dissociation constant incubated for 5 mins by UV- vis spectrophotometric analysis; assay type: nucleic-acid assay
[6] = target: dsDNA; assay: Binding affinity to double strand DNA (unknown origin) assessed as dissociation constant incubated for 5 mins by UV- vis spectrophotometric analysis; assay type: nucleic-acid assay
[7] = tested on: PC-3; assay: Induction of cell cycle arrest in human PC3 cells assessed as accumulation at Sub G1 phase at 50 uM after 48 hrs by propidium iodide staining based flow cytometry (reference value: 0.1%); assay type: functional
[8] = tested on: PC-3; assay: Induction of cell cycle arrest in human PC3 cells assessed as accumulation at G1 phase at 50 uM after 48 hrs by propidium iodide staining based flow cytometry (reference value: 5%); assay type: functional
[9] = tested on: PC-3; assay: Induction of cell cycle arrest in human PC3 cells assessed as accumulation at S phase at 50 uM after 48 hrs by propidium iodide staining based flow cytometry (reference value: 1.8%); assay type: functional
[10] = tested on: PC-3; assay: Induction of cell cycle arrest in human PC3 cells assessed as accumulation at G2/M phase at 50 uM after 48 hrs by propidium iodide staining based flow cytometry (reference value: 1.4%); assay type: functional
[11] = tested on: PC-3; assay: Induction of cell cycle arrest in human PC3 cells assessed as accumulation at Sub G1 phase at 55 uM after 48 hrs by propidium iodide staining based flow cytometry (reference value: 0.1%); assay type: functional
[12] = tested on: PC-3; assay: Induction of cell cycle arrest in human PC3 cells assessed as accumulation at G1 phase at 55 uM after 48 hrs by propidium iodide staining based flow cytometry (reference value: 5%); assay type: functional
[13] = tested on: PC-3; assay: Induction of cell cycle arrest in human PC3 cells assessed as accumulation at S phase at 55 uM after 48 hrs by propidium iodide staining based flow cytometry (reference value: 1.8%); assay type: functional
[14] = tested on: PC-3; assay: Induction of cell cycle arrest in human PC3 cells assessed as accumulation at G2/M phase at 55 uM after 48 hrs by propidium iodide staining based flow cytometry (reference value: 1.4%); assay type: functional
[15] = tested on: PC-3; assay: Induction of apoptosis in human PC-3 cells assessed as viable cells at 50 uM after 48 hrs by Annexin V based flow cytometric analysis (reference value: 89.57%); assay type: functional; conditions: read-out: Activity
[16] = tested on: PC-3; assay: Induction of apoptosis in human PC-3 cells assessed as necrotic cells at 50 uM after 48 hrs by Annexin V based flow cytometric analysis (reference value: 0.79%); assay type: functional
[17] = tested on: PC-3; assay: Induction of apoptosis in human PC-3 cells assessed as early apoptic cells at 50 uM after 48 hrs by Annexin V based flow cytometric analysis (reference value: 0.40%); assay type: functional
[18] = tested on: PC-3; assay: Induction of apoptosis in human PC-3 cells assessed as apoptotic cells at 50 uM incubated for 48 hrs by AnnexinV based flow cytometric analysis (reference value: 10.43%); assay type: functional
[19] = tested on: PC-3; assay: Induction of apoptosis in human PC-3 cells assessed as viable cells at 55 uM after 48 hrs by Annexin V based flow cytometric analysis (reference value: 89.57%); assay type: functional; conditions: read-out: Activity
[20] = tested on: PC-3; assay: Induction of apoptosis in human PC-3 cells assessed as early apoptic cells at 55 uM after 48 hrs by Annexin V based flow cytometric analysis (reference value: 0.40%); assay type: functional
[21] = Induction of apoptosis in CHO-K1 cells assessed as viable cells at 60 uM after 48 hrs by Annexin V based flow cytometric analysis (reference value: 93.71%); assay type: cell-based, Cricetulus griseus; conditions: chinese hamster, read-out: Activity
[22] = tested on: CHO-K1; assay: Induction of apoptosis in CHO-K1 cells assessed as apoptic cells at 60 uM after 48 hrs by Annexin V based flow cytometric analysis (reference value: 6.29%); assay type: cell-based, Cricetulus griseus; conditions: chinese hamster, cho-k1, 48 h
[23] = Induction of apoptosis in CHO-K1 cells assessed as viable cells at 65 uM after 48 hrs by Annexin V based flow cytometric analysis (reference value: 93.71%); assay type: cell-based, Cricetulus griseus; conditions: chinese hamster, read-out: Activity
[24] = tested on: CHO-K1; assay: Induction of apoptosis in CHO-K1 cells assessed as early apoptic cells at 65 uM after 48 hrs by Annexin V based flow cytometric analysis (reference value: 4.58%); assay type: cell-based, Cricetulus griseus; conditions: chinese hamster, cho-k1, 48 h
[25] = tested on: CHO-K1; assay: Induction of apoptosis in CHO-K1 cells assessed as late apoptic cells at 65 uM after 48 hrs by Annexin V based flow cytometric analysis (reference value: 1.01%); assay type: cell-based, Cricetulus griseus; conditions: chinese hamster, cho-k1, 48 h
[26] = tested on: CHO-K1; assay: Induction of apoptosis in CHO-K1 cells assessed as apoptic cells at 65 uM after 48 hrs by Annexin V based flow cytometric analysis (reference value: 6.29%); assay type: cell-based, Cricetulus griseus; conditions: chinese hamster, cho-k1, 48 h
[27] = tested on: Quadruplex DNA; assay: Binding affinity to Tel Q G-quadruplex DNA (unknown origin) assessed as hypsochromic shift at 8.5 uM incubated for 5 mins by UV- vis spectrophotometric analysis; assay type: nucleic-acid assay
[28] = tested on: Quadruplex DNA; assay: Binding affinity to c-Myc G-quadruplex DNA (unknown origin) assessed as hypsochromic shift at 8.5 uM incubated for 5 mins by UV- vis spectrophotometric analysis; assay type: nucleic-acid assay
[29] = tested on: dsDNA; assay: Binding affinity to double strand DNA (unknown origin) assessed as hypsochromic shift at 8.5 uM incubated for 5 mins by UV- vis spectrophotometric analysis; assay type: nucleic-acid assay
[30] = tested on: Quadruplex DNA; assay: Binding affinity to Tel Q G-quadruplex DNA (unknown origin) assessed as hyperchromicity at 8.5 uM incubated for 5 mins by UV- vis spectrophotometric analysis; assay type: nucleic-acid assay
[31] = tested on: Quadruplex DNA; assay: Binding affinity to c-Myc G-quadruplex DNA (unknown origin) assessed as hyperchromicity at 8.5 uM incubated for 5 mins by UV- vis spectrophotometric analysis; assay type: nucleic-acid assay
[32] = tested on: dsDNA; assay: Binding affinity to double strand DNA (unknown origin) assessed as hyperchromicity at 8.5 uM incubated for 5 mins by UV- vis spectrophotometric analysis; assay type: nucleic-acid assay
[33] = tested on: Quadruplex DNA; assay: Stabilization of c-Myc G-quadruplex DNA (unknown origin) assessed as change in melting temperature at 8.5 uM incubated for 5 mins by UV-visible thermal denaturation study; assay type: nucleic-acid assay
[34] = tested on: Quadruplex DNA; assay: Stabilization of Tel Q G-quadruplex DNA (unknown origin) assessed as increase in life time of DNA and compound complex at 8.5 uM incubated for 5 mins by fluorescence lifetime study; assay type: nucleic-acid assay
[35] = tested on: Quadruplex DNA; assay: Binding affinity to c-Myc G-quadruplex DNA (unknown origin) assessed as increase in intensity of positive and negative peaks at 10 to 40 uM by circular dichroism spectra; assay type: nucleic-acid assay; conditions: dose 10-40 µM
[36] = tested on: dsDNA; assay: Binding affinity to double strand DNA (unknown origin) assessed as increase in intensity of positive and negative peaks at 10 to 40 uM by circular dichroism spectra; assay type: nucleic-acid assay; conditions: dose 10-40 µM
[37] = tested on: Quadruplex DNA; assay: Binding affinity to Tel Q G-quadruplex DNA (unknown origin) assessed as increase in viscosity at 15 uM by EtBr/Hoechst 33342 method; assay type: nucleic-acid assay

SMILES: O=C(Cn1cc(CSc2nc3cc(OC(F)F)ccc3[nH]2)nn1)NC1CCCCC1
- IC50 [1]: 53.3 µM
- IC50 [2]: 84.7 µM
- IC50 [3]: 62.9 µM
- Kd [4]: 113 µM
- Kd [5]: 72.3 µM
- Kd [6]: 175 µM
- Activity [7]: 0.1%
- Activity [8]: 8.9%
- Activity [9]: 5.3%
- Activity [10]: 9.6%
- Activity [11]: 0.8%
- Activity [12]: 18.2%
- Activity [13]: 7.9%
- Activity [14]: 11.2%
- viability at 50 µM [15]: 87.3%
- Activity [16]: 2.57%
- Activity [17]: 0.76%
- Activity [18]: 12.72%
- viability at 55 µM [19]: 81.4%
- Activity [20]: 2.2%
- viability at 48 h, 60 µM [21]: 86%
- Activity [22]: 13.98%
- viability at 48 h, 65 µM [23]: 84.4%
- Activity [24]: 11.75%
- Activity [25]: 2.16%
- Activity [26]: 15.63%
- Activity [27]: 2.5 nm
- Activity [28]: 5 nm
- Activity [29]: 5.6 nm
- Activity [30]: 37.1%
- Activity [31]: 27.3%
- Activity [32]: 13.1%
- ΔTm [33]: 5 °C
- Activity [34]: Active
- Activity [35]: Active
- Activity [36]: inactive
- Activity [37]: Active
